Experimental data from paper doi:10.1101/202341v1, “A cell-free synthetic biochemistry platform for raspberry ketone production” (biorxiv, 2017).

Tests used:
TAL = target: T1, TAL (Rhodotorula glutinis, UniProt U5TV35); assay: individual enzyme activity assay; assay type: biochemical
T1 construct: synthetic gene codon optimised for E. coli; expressed in E. coli BL21-Gold (DE3)
T1 sequence (U5TV35 1-693): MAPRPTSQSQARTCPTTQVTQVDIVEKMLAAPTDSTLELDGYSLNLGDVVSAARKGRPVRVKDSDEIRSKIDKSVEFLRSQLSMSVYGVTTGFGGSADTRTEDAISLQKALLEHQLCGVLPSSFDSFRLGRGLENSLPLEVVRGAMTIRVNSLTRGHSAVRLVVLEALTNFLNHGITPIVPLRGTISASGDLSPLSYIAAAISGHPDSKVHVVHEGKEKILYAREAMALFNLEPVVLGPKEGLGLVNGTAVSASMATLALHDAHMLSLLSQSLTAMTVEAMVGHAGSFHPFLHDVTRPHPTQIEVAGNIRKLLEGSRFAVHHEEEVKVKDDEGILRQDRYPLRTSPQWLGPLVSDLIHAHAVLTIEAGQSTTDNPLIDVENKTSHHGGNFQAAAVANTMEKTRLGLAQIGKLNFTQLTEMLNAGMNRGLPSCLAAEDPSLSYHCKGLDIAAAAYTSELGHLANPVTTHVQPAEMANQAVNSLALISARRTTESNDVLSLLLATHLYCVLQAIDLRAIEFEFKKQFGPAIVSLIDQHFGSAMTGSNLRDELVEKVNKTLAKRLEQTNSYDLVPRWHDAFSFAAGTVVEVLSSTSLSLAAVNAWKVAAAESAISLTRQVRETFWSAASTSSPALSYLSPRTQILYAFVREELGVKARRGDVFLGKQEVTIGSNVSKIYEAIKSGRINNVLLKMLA

CurA [1] = target: T2, CurA (Escherichia coli, UniProt P76113); assay: ligand fluorescence in one-pot enzymatic synthesis; assay type: binding; conditions: 25 uM CurA without NADPH; BDMC formed in situ by TAL, PCL, MatB and CUS
T2 construct: N-terminal His6-tag; expressed in E. coli BL21 Gold (DE3) pLysS; apo form
T2 sequence (P76113 1-345): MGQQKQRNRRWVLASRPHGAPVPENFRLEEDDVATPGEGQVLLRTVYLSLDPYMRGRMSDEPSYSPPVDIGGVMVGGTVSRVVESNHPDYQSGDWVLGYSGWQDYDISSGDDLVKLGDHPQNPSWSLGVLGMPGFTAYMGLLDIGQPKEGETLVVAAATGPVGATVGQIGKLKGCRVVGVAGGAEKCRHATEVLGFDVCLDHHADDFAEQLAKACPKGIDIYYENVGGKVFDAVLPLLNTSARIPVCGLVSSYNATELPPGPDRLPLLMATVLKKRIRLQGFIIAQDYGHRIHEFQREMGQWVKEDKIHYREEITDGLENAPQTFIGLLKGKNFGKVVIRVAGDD

CurA [2] = target: T2, CurA; assay: ligand fluorescence (excitation […] nm, emission […] nm); assay type: binding; conditions: apo-CurA without NADPH; titration 0-100 uM curcumin with 25 uM CurA; also reduced as substrate when NADPH is added

Structure (SMILES): N[C@@H](Cc1ccc(O)cc1)C(=O)O [tyrosine]
- individual enzyme activity assay (TAL): The activity of TAL and PCL enzymes was also assayed individually

Structure (SMILES): O=C(/C=C/c1ccc(O)cc1)CC(=O)/C=C/c1ccc(O)cc1 [BDMC]
- ligand fluorescence in one-pot enzymatic synthesis (CurA [1]): used in the absence of NADPH to bind to BDMC/curcumin

Structure (SMILES): COc1cc(/C=C/C(=O)CC(=O)/C=C/c2ccc(O)c(OC)c2)ccc1O [curcumin]
- ligand fluorescence (excitation 425 nm, emission 520 nm) (CurA [2]): CurA could bind curcumin in the absence of NADPH
